According to patent US8604059B2, “Thioxanthene derivatives for the treatment of infectious diseases” (BKG Pharma APS, priority 2009, dated 2013):
≈ marks a conversion by molar mass, not a printed value. Where two headings read alike, the source gives them in different places.

What was measured:
[1] = test system: E. coli MDR clinical isolates; test: FIC index, synergy with antibiotics (Table 4a); format: cell-based; details: 8 MDR E. coli, mean, compound at ¼ of MIC
Method: (§1) The effect of the compounds was tested according to the methods described in WO2005/105145. In brief, cell growth was tested using the MIC susceptibility tests by use of the microdilution broth method in accordance to the NCCLS Guidelines (NCCLS Guidelines, Methods for Dilution Antimicrobial Susceptibility Tests for Bacteria That Grow Aerobically; Approved Standard, Sixth Edition, Volume 23; Number 2).
(§2) The Fractional Inhibitory Concentration (FIC) index were calculated for each compound as described in WO2005/105145. Synergy was defined for Fractional Inhibitory Concentration (FIC) indices less than 0.5
E. coli: 8 in vivo-selected multidrug resistant clinical isolates of E. coli. Resistant to tetracycline, beta-lactams, fluoroquinolones, chloramphenicol and aminoglycoside

E. faecalis = test: MIC, microdilution broth, multiresistant clinical isolates (Table 1A); format: cell-based; details: Enterococcus faecalis; ten multiresistant clinical isolates; read-out: Median MIC E. faecalis
Method: (§3) Cell growth was tested using the Minimal Inhibitory Concentration (MIC) susceptibility tests by use of the microdilution broth method in accordance to the NCCLS Guidelines (NCCLS Guidelines, Methods for Dilution Antimicrobial Susceptibility Tests for Bacteria That Grow Aerobically; Approved Standard, Sixth Edition, Volume 23; Number 2). The minimum inhibitory concentration (MIC), is defined as the lowest concentration of drug which inhibits growth of the test organism, in the sense that no visible growth is detected (total inhibition of growth). In example 2, MIC of the compounds used on fungal microorgansims was determined from the IC90 measurements according to NCCLS Guidelines.
(§4) A log phase culture of bacteria was diluted with fresh pre-warmed Mueller-Hinton medium and adjusted to a defined OD at 600 nm in order to give a final concentration of 1×10^4-5 bacteria/ml medium. The bacterial culture was transferred to microtiter-plates and culture was added to each well. […] Trays were incubated at 37° C. by shaking in a robot analyzer, PowerWavex, software KC^4′ Kebo. Lab, Copenhagen, for 16 h and optical densities were measured at 600 nm during the incubation time in order to record growth curves. Wells containing bacterial culture without drug were used as controls to ensure correct inoculum size and bacterial growth during the incubation. Cultures were tested in order to detect contaminations. Each experiment was repeated in triplicate.
(§5) Ten strains in each test group.

E. coli = test: as above; format: cell-based; details: Escherichia coli; ten multiresistant clinical isolates; read-out: Median MIC E. coli
Method: as §3, §4, §5

E. faecium = test: as above; format: cell-based; details: Enterococcus faecium; ten multiresistant clinical isolates; read-out: Median MIC E. faecium
Method: as §3, §4, §5

S. epidermidis = test: as above; format: cell-based; details: Staphylococcus epidermidis; ten multiresistant clinical isolates; read-out: Median MIC S. epidermidis
Method: as §3, §4, §5

S. aureus = test: as above; format: cell-based; details: Staphylococcus aureus; ten multiresistant clinical isolates; read-out: Median MIC S. aureus
Method: as §3, §4, §5

[2] = test system: Multiresistant clinical isolates E. coli; test: Maximal reversal of resistance and synergistic effect (Table 4c); format: cell-based; details: E. coli multiresistant isolates
Method: The maximal obtained reversal of resistance and synergistic effect was tested as previously described.
Strains: Multiresistant clinical isolates E. coli, Ten strains in each group.

[3] = test system: S. aureus MRSA clinical isolates; test: FIC index, synergy with antibiotics (Table 4a); format: cell-based, Staphylococcus aureus; details: with Dicloxacillin; 8 MRSA; mean; compound at ¼ of MIC
Method: as §1, §2
Staphylococcus aureus: 8 (MRSA) in vivo-selected clinical isolates. Resistant to methicillin and beta-lactam antibiotics. Susceptible to teicoplanin chloramphenicol, fosfomycin, netilmicin and vancomycin.

[4] = test system: E. faecalis MDR/VRE clinical isolates; test: FIC index, synergy with antibiotics (Table 4a); format: cell-based, Enterococcus faecalis; details: 8 MDR/VRE E. faecalis, mean, compound at ¼ of MIC
Method: as §1, §2
Enterococcus faecalis: 8 multidrug resistant in vivo-selected clinical isolates. […] Expressing change in the cell wall precursor target as a major resistance mechanism (VanA gene expression).

[5] = Cytotoxic effect in uninfected MT4 cultures; format: cell-based; details: human, uninfected MT4 cells; single agent; uninfected MT4
Method: (§6) Compounds were examined for possible antiviral activity against strain IIIB of HIV-1 using MT4 cells as target cells. MT4 cells were incubated with virus (0.005 MOI) and growth medium containing the test dilutions of compound(s) for six days in parallel with virus-infected and uninfected control cultures without compound added. Expression of HIV in the cultures was indirectly quantified using the MTT assay as previously described. Compounds mediating less than 30% reduction of HIV expression were considered without biological activity. Compounds were tested in parallel for cytotoxic effect in uninfected MT4 cultures containing the test dilutions of compound as described above. Cultures for test of both antiviral activity and cytotoxic effect were set up in tripleduplicates, […] per culture in micro titre plates. A 30% inhibition of cell growth relative to control cultures was considered significant. The 50% inhibitory concentration was determined by interpolation from the plots of percent inhibition versus concentration of compound.
(§7) CC50 is defined as the inhibitory concentration that reduces cellular growth or viability of uninfected cells by 50%.

MT4 cells = test: Cytotoxic effect in uninfected MT4 cultures; format: cell-based; details: read-out: CC50 A + C3 (1 μM); AZT in presence of compound 3 at 1 μM
Method: as §6, §7

strain IIIB of HIV-1 = test: Inhibition of HIV-1 replication in MT4 cells, MTT assay; format: cell-based; details: Human immunodeficiency virus 1, IIIB
Method: The enhancing effect of compound 3 on anti-viral agents was studied by checkerboard combination studies exposing HIV infected cells to 0-3 μM anti-viral agent in the absence or presence of compound 3 in concentrations from 0 to 6 μM. Each experiment was repeated in tripleduplicate. MIC values represent the mean values of two separate experiments.
The HIV-1 strain HTLV-IIIB were propagated in H9 cells at 37° C., 5% CO2 using RPMI 1640 with 10% heat-inactivated foetal calf serum (FCS) and antibiotics (growth medium). Culture supernatant was filtered ([…]), aliquotted, and stored at −80° C. until use. The HIV-1 strain was obtained from NIH AIDS Research and Reference Program.
as §6
EC50 is defined as the effective concentration that inhibits 50% of viral production, 50% of viral infectivity, or 50% of the virus-induced cytopathic effect.

Streptococci = test: MIC on multiresistant and susceptible clinical isolates (Table 1b); format: cell-based; details: 8 multiresistant and 8 susceptible isolates
Method: as §3
(§8) A log phase culture of bacteria was diluted with fresh pre-warmed Mueller-Hinton medium and adjusted to a defined OD at 600 nm in order to give a final concentration of 1×10^4-5 bacteria/ml medium. The bacterial culture was transferred to microtiter-plates and culture was added to each well. Drug was added to the bacterial culture in the wells as two-fold dilution series of drug in order to give final concentrations ranging from 0.03 to 128 μg/ml. Trays were incubated at 37° C. by shaking in a robot analyzer, PowerWavex, software KC^4′ Kebo. Lab, Copenhagen, for 16 h and optical densities were measured at 600 nm during the incubation time in order to record growth curves. Wells containing bacterial culture without drug were used as controls to ensure correct inoculum size and bacterial growth during the incubation. Cultures were tested in order to detect contaminations. Each experiment was repeated in triplicate. MIC values represent the mean values of two separate triplicate experiments. Intra- and interassay variation was <5%.
(§9) Clinically relevant human bacterial isolates of Staphylococci, Streptococci, Micrococci and Gram negative species was cultured and assayed as described above for susceptibility towards the compounds listed in table 1b.

[6] = test system: Staphylococci, Micrococci. Including MRSA; test: as above; format: cell-based; details: Micrococci incl. MRSA, 8 multiresistant and 8 susceptible isolates
Method: as §3, §8, §9

Gram negative sp. = test: as above; format: cell-based; details: 8 multiresistant and 8 susceptible isolates
Method: as §3, §8, §9

Candida albicans = test: Synergy with fluconazole, broth microdilution NCCLS M27-A (Table 10); format: cell-based
Method: The isolates were subcultured for 24 h on Sabouraud glucose agar before susceptibility testing. Broth microdilution tests were performed according to NCCLS document M27-A (Ref: National Commitee for Clinical Laboratory Standards. (1997). Reference Method for Broth Dilution Antifungal Susceptibility Testing of Yeasts: Approved Standard M27-A. NCCLS, Wayne, Pa.) Microtitre plates were read spectrophotometrically at 530 nm, after mixing the wells by pipetting to resuspend yeast sediments. […] The Fractional Inhibitory Concentration (FIC) was calculated for the anti-infective agent alone and in combination with compound 3 and 4 (see table 4) as described above. Synergy was defined as a FIC index of <0.5.

Candida species = test: MIC on clinical isolates of Candida species, broth microdilution NCCLS M27-A (Table 3); format: cell-based; details: Candida species incl. fluconazole resistant; MIC = 90% growth inhibition
Method: The antibacterial effect of demethylated/dealkylated phenothiazine or thioxanthene compounds were studied by growth inhibition studies exposing cells to 0-32 μg/ml of drug. Each experiment was repeated in triplicate. MIC values represent the mean values of two separate triplicate experiments.
4 clinical isolates of Candida species (including 3 fluconazole resistant isolates) were subcultured for 24 h on Sabouraud glucose agar before susceptibility testing. Broth microdilution tests were performed according to NCCLS document M27-A (Ref: National Commitee for Clinical Laboratory Standards. (1997). Reference Method for Broth Dilution Antifungal Susceptibility Testing of Yeasts: Approved Standard M27-A. NCCLS, Wayne, Pa.). Microtitre plates were read spectrophotometrically at 530 nm, after mixing the wells by pipetting to resuspend yeast sediments. In this experiment, the MIC was defined as the lowest drug dilution resulting in 90% growth inhibition.

Enterococci sp. = test: MIC on multiresistant and susceptible clinical isolates of Enterococci (Table 2); format: cell-based, Enterococcus faecalis and Enterococcus faecium; details: 8 multiresistant (VanA, VanB, HLAR, BLR,CR) and 8 susceptible isolates
Method: as §3
as §8, with “Wells containing bacterial culture without drug were used as controls to ensure correct inoculum size and bacterial growth during the incubation. Cultures were tested in order to detect contaminations. Each experiment was repeated in triplicate. MIC values represent the mean values of two separate triplicate experiments. Intra- and interassay variation was <5%.” left out

| Structure (SMILES) | FIC index ([1]; with Ampicillin) | FIC index ([1]; with Ciprofloxacin) | FIC index ([1]; with Gentamycin) | FIC index ([1]; with Tetracycline) | MIC (E. faecalis) | MIC (E. coli) | MIC (E. faecium) | MIC (S. epidermidis) | MIC (S. aureus) | Maximal reversal of resistance: concentration of compound [2] | FIC index [3] | FIC index ([4]; with Ciprofloxacin) | FIC index ([4]; with Dicloxacillin) | other results |
| --- | --- | --- | --- | --- | --- | --- | --- | --- | --- | --- | --- | --- | --- | --- |
| Clc1ccc2c(c1)/C(=C/CCN1CCNCC1)c1ccccc1S2 [Compound 1, N-dealkyl-transclopenthixol] | 0.47 | 0.47 | 0.47 | 0.47 | 0.6 µg/mL (≈ 1.68 µM) | 6 µg/mL (≈ 16.8 µM) | 0.6 µg/mL (≈ 1.68 µM) | 2.4 µg/mL (≈ 6.72 µM) | 3.6 µg/mL (≈ 10.1 µM) | 1.0 µg/mL | 0.28 | 0.28 | 0.28 | – |
| Cc1cn([C@H]2C[C@H](N=[N+]=[N-])[C@@H](CO)O2)c(=O)[nH]c1=O [AZT, 3′-Azido-3′-deoxythymidine] | – | – | – | – | – | – | – | – | – | – | – | – | – | CC50 at 6 days [5]: > 3000 nM; CC50 (MT4 cells): > 3000 nM; EC50 (strain IIIB of HIV-1; 144 h, single agent, MT4 cells, six days, read-out: EC50): 50 nM; EC50 (strain IIIB of HIV-1; MT4, read-out: EC50 A + C3 (1 μM), AZT in presence of compound 3 at 1 μM): 10 nM |
| OCCN1CCC(CC/C=C2\c3ccccc3Sc3ccc(Cl)cc32)CC1 [Compound 4] | 0.44 | 0.47 | 0.47 | 0.44 | – | – | – | – | – | – | 0.34 | 0.34 | 0.34 | MIC Mean (Streptococci): 1 µg/mL (≈ 2.5 µM); MIC Mean [6]: 1 µg/mL (≈ 2.5 µM); MIC Mean (Gram negative sp.): 3 µg/mL (≈ 7.5 µM); MIC (Candida albicans; Candida albicans, compound alone, read-out: MIC Compound): 1.5 µg/mL; FIC index (Candida albicans; in combination with fluconazole): 0.39; MIC Mean (range) (Candida species): 1.5 (0.125-2.0) μ/ml; MIC Mean (range) (Enterococci sp.): 0.5 (0.125-1.0) μ/ml |
| OCCN1CCN(CC/C=C2\c3ccccc3Sc3ccc(Cl)cc32)CC1 [Compound 2, trans-clopentixol] | 0.47 | 0.44 | 0.44 | 0.47 | 1 µg/mL (≈ 2.49 µM) | 16 µg/mL (≈ 39.9 µM) | 1 µg/mL (≈ 2.49 µM) | 8 µg/mL (≈ 20 µM) | 8 µg/mL (≈ 20 µM) | 2.0 µg/mL | 0.37 | 0.47 | 0.47 | – |
